Source: ChEMBL document CHEMBL1125977, “2-aryl-1,2-dihydro-6,7-dimethoxyquinazoline-3-oxides with positive inotropic activity” (1991)

Legend:
[1] = tested on: Canis familiaris; assay: Inotropic activity of compound was evaluated as % increase in cardiac force at a dose of 1.87 (mg/Kg) in anesthetized dog; assay type: functional, Canis lupus familiaris, Heart
[2] = tested on: Canis familiaris; assay: Inotropic activity of compound was evaluated as % change in heart rate at a dose of 1.87 (mg/Kg) in anesthetized dog; assay type: functional, Canis lupus familiaris
[3] = tested on: Canis familiaris; assay: Inotropic activity of compound was evaluated as % change in mean arterial blood pressure at a dose of 1.87 (mg/Kg) in anesthetized dog; assay type: functional, Canis lupus familiaris
[4] = tested on: Canis familiaris; assay: Inotropic activity of compound was evaluated as % increase in cardiac force at a dose of 10 (mg/Kg, intraduodenally) in anesthetized dog; assay type: functional, Canis lupus familiaris, Heart
[5] = tested on: Canis familiaris; assay: Inotropic activity of compound was evaluated as % increase in cardiac force at a dose of 8.75 (mg/Kg) in anesthetized dog; assay type: functional, Canis lupus familiaris, Heart
[6] = tested on: Canis familiaris; assay: Inotropic activity of compound was evaluated as % change in heart rate at a dose of 10 (mg/Kg, intraduodenally) in anesthetized dog; assay type: functional, Canis lupus familiaris
[7] = tested on: Canis familiaris; assay: Inotropic activity of compound was evaluated as % change in heart rate at a dose of 8.75 (mg/Kg) in anesthetized dog; assay type: functional, Canis lupus familiaris
[8] = tested on: Canis familiaris; assay: Inotropic activity of compound was evaluated as % change in mean arterial blood pressure at a dose of 10 (mg/Kg, intraduodenally) in anesthetized dog; assay type: functional, Canis lupus familiaris
[9] = tested on: Canis familiaris; assay: Inotropic activity of compound was evaluated as % change in mean arterial blood pressure at a dose of 8.75 (mg/Kg) in anesthetized dog; assay type: functional, Canis lupus familiaris
[10] = tested on: Canis familiaris; assay: Inotropic activity of compound was evaluated as % increase in cardiac force at a dose of 8.28 (mg/Kg) in anesthetized dog; assay type: functional, Canis lupus familiaris, Heart
[11] = tested on: Canis familiaris; assay: Inotropic activity of compound was evaluated as % change in heart rate at a dose of 8.28 (mg/Kg) in anesthetized dog; assay type: functional, Canis lupus familiaris
[12] = tested on: Canis familiaris; assay: Inotropic activity of compound was evaluated as % change in mean arterial blood pressure at a dose of 8.28 (mg/Kg) in anesthetized dog; assay type: functional, Canis lupus familiaris

Compound | CF [1] | HR [2] | MABP [3] | CF [5] | HR [7] | MABP [9] | also measured
COc1ccc(C2Nc3cc(OC)c(OC)cc3C(C)=[N+]2[O-])cc1 (stereo not given) | 29% | 8% | -6% |  |  |  | 
COc1cc2c(cc1OC)C(C)=[N+]([O-])C(c1ccccc1)N2 (stereo not given) | 42% | 12% | -3% | 137% | 47% | -28% | CF [4]: 157%; HR [6]: 37%; MABP [8]: -15%
COc1cc2c(cc1OC)C(C)=[N+]([O-])C(c1ccccn1)N2 (stereo not given) |  |  |  | 45% | 16% | 0% | 
COc1cc2c(cc1OC)C(C)=[N+]([O-])C(c1ccc(C)cc1)N2 (stereo not given) | 45% | 10% | -6% |  |  |  | 
COc1cc2c(cc1OC)C(C)=[N+]([O-])C(c1ccco1)N2 (stereo not given) |  |  |  | 123% | 20% | -14% | 
COc1cc2c(cc1OC)C(C)=[N+]([O-])C(c1cc3c(cc1[N+](=O)[O-])OCO3)N2 (stereo not given) |  |  |  | 17% | 4% | 0% | 
COc1cc2nc(-c3ccccc3)nc(C)c2cc1OC | -14% | -4% | -20% |  |  |  | 
COc1cc2nc(-c3ccccc3)[n+]([O-])c(C)c2cc1OC |  |  |  | 29% | 5% | 0% | 
COc1cc2c(cc1OC)C(C)=[N+]([O-])C(c1ccncc1)N2 (stereo not given) |  |  |  | 29% | 8% | 0% | 
COc1cc2c(cc1OC)C(C)=[N+]([O-])C(c1ccc3c(c1)OCO3)N2 (stereo not given) |  |  |  | 124% | 39% | -38% | 
COc1cc2c(cc1OC)C(C)=[N+]([O-])C(c1cccc3c1OCO3)N2 (stereo not given) |  |  |  |  |  |  | CF [10]: 45%; HR [11]: 13%; MABP [12]: 10%
COc1cc2c(cc1OC)C(C)=[N+]([O-])C(c1cccs1)N2 (stereo not given) |  |  |  | 75% | 21% | -31% | 
COc1cc2c(cc1OC)C(C)=[N+]([O-])C(c1c(F)c(F)c(F)c(F)c1F)N2 (stereo not given) | 33% | 8% | 2% |  |  |  | 
